# Results published in ChEMBL document CHEMBL1909046, “DrugMatrix in vitro pharmacology data”.
# Tests used:
# [1] = target: T1, Receptor-type tyrosine-protein phosphatase C (Homo sapiens, UniProt P08575); set-up: species or system Escherichia coli;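 note: inhibition of CD45 enzyme activity measured using DiFMUP as substrate; in other assays of this panel Not Active means under 50% inhibition at 10 µM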
# T1 sequence (P08575 whole entry): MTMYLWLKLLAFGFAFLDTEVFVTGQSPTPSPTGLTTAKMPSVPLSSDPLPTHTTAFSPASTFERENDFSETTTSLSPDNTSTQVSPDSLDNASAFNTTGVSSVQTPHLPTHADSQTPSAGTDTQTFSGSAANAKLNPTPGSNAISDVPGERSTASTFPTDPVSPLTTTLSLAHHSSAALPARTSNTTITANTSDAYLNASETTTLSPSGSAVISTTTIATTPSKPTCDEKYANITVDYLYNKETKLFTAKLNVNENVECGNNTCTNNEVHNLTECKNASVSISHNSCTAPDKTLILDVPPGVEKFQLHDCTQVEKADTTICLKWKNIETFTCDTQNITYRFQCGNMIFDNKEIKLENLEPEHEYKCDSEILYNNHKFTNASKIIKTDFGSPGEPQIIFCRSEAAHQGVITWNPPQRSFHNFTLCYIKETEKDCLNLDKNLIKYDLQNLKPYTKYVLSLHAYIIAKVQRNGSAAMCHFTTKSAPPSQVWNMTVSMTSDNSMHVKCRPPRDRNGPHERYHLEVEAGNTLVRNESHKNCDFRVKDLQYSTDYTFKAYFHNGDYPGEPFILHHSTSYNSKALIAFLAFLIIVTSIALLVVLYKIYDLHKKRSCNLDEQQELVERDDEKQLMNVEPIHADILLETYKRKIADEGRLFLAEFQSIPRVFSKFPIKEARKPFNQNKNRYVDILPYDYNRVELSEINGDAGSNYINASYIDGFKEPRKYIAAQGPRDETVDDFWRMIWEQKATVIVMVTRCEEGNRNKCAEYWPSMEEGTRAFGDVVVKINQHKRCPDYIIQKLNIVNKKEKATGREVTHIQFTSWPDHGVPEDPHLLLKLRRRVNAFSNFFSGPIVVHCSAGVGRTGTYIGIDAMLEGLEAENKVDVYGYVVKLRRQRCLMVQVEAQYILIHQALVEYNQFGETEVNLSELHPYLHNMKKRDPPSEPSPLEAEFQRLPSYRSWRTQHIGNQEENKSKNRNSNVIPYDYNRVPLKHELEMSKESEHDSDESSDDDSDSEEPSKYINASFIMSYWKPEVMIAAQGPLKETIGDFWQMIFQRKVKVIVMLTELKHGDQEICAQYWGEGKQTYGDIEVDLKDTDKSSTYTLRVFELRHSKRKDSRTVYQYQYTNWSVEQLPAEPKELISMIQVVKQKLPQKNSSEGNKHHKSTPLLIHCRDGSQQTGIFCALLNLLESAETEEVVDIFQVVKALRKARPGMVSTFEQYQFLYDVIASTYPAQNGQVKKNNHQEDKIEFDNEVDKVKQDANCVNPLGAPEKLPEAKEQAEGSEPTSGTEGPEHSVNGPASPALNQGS
# [2] = target: Sigma non-opioid intracellular receptor 1 (Homo sapiens, UniProt Q99720); experiment: DRUGMATRIX: Sigma1 radioligand binding (ligand: [3H] Haloperidol); format: cell membranes, Jurkat, Membrane; conditions: jurkat; Not Active = under 50% inhibition at 10 µM
# Sigma non-opioid intracellular receptor 1, sequence (Q99720 whole entry): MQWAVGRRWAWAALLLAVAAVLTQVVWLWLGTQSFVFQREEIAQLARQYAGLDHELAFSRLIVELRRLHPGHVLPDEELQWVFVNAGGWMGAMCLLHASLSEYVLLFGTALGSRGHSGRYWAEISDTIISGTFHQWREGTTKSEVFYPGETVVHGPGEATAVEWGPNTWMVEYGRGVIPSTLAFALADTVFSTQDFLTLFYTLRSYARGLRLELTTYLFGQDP
# [3] = target: T2, Alpha-1D adrenergic receptor (Homo sapiens, UniProt P25100); format: cell membranes, HEK293, Membrane; note: in other assays of this panel Not Active means under 50% inhibition at 10 µM
# T2 sequence (P25100 whole entry): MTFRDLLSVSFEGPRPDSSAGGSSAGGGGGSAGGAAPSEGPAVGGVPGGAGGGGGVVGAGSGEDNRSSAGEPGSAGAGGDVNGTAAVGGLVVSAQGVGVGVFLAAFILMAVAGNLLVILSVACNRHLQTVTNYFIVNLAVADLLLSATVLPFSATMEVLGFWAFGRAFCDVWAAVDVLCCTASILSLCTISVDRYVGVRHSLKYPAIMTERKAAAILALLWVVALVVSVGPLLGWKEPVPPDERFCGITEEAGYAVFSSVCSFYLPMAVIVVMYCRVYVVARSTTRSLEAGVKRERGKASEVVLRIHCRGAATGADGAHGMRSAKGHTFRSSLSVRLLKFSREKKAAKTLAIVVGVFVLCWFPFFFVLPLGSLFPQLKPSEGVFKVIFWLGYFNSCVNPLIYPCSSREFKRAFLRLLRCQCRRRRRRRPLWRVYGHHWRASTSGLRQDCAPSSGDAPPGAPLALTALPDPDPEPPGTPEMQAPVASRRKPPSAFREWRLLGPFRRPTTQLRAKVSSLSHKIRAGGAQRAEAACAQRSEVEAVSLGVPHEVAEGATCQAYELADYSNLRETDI
# [4] = target: Sodium-dependent noradrenaline transporter (Homo sapiens, UniProt P23975); experiment: DRUGMATRIX: Norepinephrine Transporter radioligand binding (ligand: [125I] RTI-55); format: cell membranes, MDCK, Membrane; conditions: Not Active = under 50% inhibition at 10 µM
# Sodium-dependent noradrenaline transporter, sequence (P23975 whole entry): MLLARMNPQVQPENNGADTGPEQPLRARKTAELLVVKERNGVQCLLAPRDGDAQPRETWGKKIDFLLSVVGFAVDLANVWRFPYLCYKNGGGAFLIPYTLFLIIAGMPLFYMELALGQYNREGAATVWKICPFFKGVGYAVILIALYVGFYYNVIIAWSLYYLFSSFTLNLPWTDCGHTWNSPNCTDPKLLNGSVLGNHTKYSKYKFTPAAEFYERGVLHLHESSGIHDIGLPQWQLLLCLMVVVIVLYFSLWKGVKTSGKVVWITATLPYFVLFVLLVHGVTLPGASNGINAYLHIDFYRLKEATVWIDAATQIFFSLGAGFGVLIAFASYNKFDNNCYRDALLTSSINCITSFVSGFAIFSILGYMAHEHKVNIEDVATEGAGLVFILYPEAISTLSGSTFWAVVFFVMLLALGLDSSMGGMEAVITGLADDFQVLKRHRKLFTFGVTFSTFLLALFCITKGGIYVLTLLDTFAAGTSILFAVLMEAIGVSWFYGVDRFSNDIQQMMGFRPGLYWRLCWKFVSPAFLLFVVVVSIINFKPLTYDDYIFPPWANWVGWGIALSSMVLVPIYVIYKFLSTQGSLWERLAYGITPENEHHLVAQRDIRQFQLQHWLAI
# [5] = target: Receptor tyrosine-protein kinase erbB-2 (Homo sapiens, UniProt P04626); experiment: biochemical; format: cell-based, Insect cells;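 note: inhibition of HER2 kinase enzyme activity, measured with Poly(Glu:Tyr) as the phosphorylation substrate; in other assays of this panel Not Active means under 50% inhibition at 10 µM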
# Receptor tyrosine-protein kinase erbB-2, sequence (P04626 whole entry): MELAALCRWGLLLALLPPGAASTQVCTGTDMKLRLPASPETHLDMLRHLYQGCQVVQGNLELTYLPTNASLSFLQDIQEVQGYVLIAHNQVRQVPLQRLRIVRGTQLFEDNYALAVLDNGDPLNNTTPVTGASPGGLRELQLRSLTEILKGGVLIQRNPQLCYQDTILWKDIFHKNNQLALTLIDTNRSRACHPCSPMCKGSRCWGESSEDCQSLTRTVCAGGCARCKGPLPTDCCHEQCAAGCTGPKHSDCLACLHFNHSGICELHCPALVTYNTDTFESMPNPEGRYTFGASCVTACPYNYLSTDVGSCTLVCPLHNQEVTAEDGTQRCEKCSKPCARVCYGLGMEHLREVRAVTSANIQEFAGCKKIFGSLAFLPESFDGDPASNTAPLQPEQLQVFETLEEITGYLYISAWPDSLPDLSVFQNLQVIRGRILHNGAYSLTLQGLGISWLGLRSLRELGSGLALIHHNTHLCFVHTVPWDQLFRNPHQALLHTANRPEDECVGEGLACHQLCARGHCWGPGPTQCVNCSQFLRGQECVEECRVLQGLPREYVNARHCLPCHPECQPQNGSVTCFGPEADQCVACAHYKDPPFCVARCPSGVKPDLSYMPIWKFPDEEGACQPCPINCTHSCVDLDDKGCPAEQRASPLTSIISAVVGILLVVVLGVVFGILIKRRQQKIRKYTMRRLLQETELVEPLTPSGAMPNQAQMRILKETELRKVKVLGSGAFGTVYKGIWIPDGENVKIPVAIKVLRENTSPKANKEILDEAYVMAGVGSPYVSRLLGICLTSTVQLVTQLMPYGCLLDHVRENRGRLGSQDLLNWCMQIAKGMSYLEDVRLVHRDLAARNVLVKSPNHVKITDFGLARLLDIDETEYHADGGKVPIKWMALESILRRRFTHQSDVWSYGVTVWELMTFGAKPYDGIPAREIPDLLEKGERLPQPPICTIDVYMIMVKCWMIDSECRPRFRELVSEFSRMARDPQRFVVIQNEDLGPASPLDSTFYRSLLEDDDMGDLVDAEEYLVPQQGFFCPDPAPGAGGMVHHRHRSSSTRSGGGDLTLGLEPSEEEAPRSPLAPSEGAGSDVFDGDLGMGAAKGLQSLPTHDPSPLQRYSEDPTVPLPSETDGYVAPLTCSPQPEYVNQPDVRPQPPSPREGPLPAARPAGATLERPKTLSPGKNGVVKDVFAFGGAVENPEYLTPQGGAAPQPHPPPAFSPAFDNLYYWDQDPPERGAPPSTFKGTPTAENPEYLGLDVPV
# [6] = target: Platelet-activating factor receptor (Homo sapiens, UniProt P25105); format: tissue-based; note: in other assays of this panel Not Active means under 50% inhibition at 10 µM
# Platelet-activating factor receptor, sequence (P25105 whole entry): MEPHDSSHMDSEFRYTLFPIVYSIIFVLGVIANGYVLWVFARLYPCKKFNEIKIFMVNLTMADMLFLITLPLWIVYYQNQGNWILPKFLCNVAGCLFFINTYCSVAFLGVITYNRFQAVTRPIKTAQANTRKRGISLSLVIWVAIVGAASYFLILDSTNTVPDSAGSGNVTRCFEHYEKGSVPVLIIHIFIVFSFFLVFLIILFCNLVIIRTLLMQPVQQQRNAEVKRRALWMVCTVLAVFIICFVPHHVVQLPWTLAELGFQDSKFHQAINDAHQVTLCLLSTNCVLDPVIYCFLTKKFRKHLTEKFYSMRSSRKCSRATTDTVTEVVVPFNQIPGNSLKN
SMILES,IC50 [1],IC50 [2],IC50 ([3]; hek293),IC50 ([4]; mdck),IC50 ([5]; insect cells),IC50 [6],IC50 ([5]; read-out: IC50) [nM],IC50 ([4]; read-out: IC50) [nM],Ki ([4]; read-out: Ki) [nM],IC50 ([3]; read-out: IC50) [nM],Ki ([3]; read-out: Ki) [nM]
CC(=O)OCC(=O)[C@@]1(O)CC[C@H]2[C@@H]3CCC4=CC(=O)CC[C@]4(C)[C@H]3C(=O)C[C@@]21C [CORTISONE ACETATE],Not Active,Not Active,Not Active,Not Active,Not Active,Not Active,–,–,–,–,–
O=c1ccc2ccccc2o1 [COUMARIN],Not Active,Not Active,Not Active,Not Active,Not Active,Not Active,–,–,–,–,–
C[C@@H]1C[C@@H]([C@H](O)CC2CC(=O)NC(=O)C2)C(=O)[C@@H](C)C1 [CYCLOHEXIMIDE],Not Active,Not Active,Not Active,Not Active,Not Active,Not Active,–,–,–,–,–
C/C=C/C[C@@H](C)[C@@H](O)[C@H]1C(=O)N[C@@H](CC)C(=O)N(C)CC(=O)N(C)[C@@H](CC(C)C)C(=O)N[C@@H](C(C)C)C(=O)N(C)[C@@H](CC(C)C)C(=O)N[C@@H](C)C(=O)N[C@H](C)C(=O)N(C)[C@@H](CC(C)C)C(=O)N(C)[C@@H](CC(C)C)C(=O)N(C)[C@@H](C(C)C)C(=O)N1C [CYCLOSPORINE],Not Active,Not Active,Not Active,Not Active,Not Active,Not Active,–,–,–,–,–
CN(C)/N=N/c1[nH]cnc1C(N)=O [DACARBAZINE],Not Active,Not Active,Not Active,Not Active,Not Active,Not Active,–,–,–,–,–
COc1ccc2c(c1)[C@]13CCCC[C@@H]1[C@H](C2)N(C)CC3 [DEXTROMETHORPHAN],Not Active,Not Active,Not Active,Not Active,Not Active,Not Active,–,–,–,–,–
CC(=O)Nc1c(I)c(NC(C)=O)c(I)c(C(=O)O)c1I [DIATRIZOIC ACID],Not Active,Not Active,Not Active,Not Active,Not Active,Not Active,–,–,–,–,–
COP(=O)(OC)OC=C(Cl)Cl [DICHLORVOS],Not Active,Not Active,Not Active,Not Active,Not Active,Not Active,–,–,–,–,–
O=C(O)Cc1ccccc1Nc1c(Cl)cccc1Cl [DICLOFENAC],Not Active,Not Active,Not Active,Not Active,Not Active,Not Active,–,–,–,–,–
C[C@H]1O[C@@H](O[C@H]2[C@@H](O)C[C@H](O[C@H]3[C@@H](O)C[C@H](O[C@H]4CC[C@@]5(C)[C@H](CC[C@@H]6[C@@H]5CC[C@]5(C)[C@@H](C7=CC(=O)OC7)CC[C@]65O)C4)O[C@@H]3C)O[C@@H]2C)C[C@H](O)[C@@H]1O [DIGITOXIN],Not Active,Not Active,Not Active,Not Active,Not Active,Not Active,–,–,–,–,–
CCN1CC(CCN2CCOCC2)C(c2ccccc2)(c2ccccc2)C1=O (stereo unspecified) [DOXAPRAM],Not Active,Not Active,Not Active,Not Active,Not Active,Not Active,–,–,–,–,–
Cn1c(=O)c2c(ncn2CC2OCCO2)n(C)c1=O [DOXOFYLLINE],Not Active,Not Active,Not Active,Not Active,Not Active,Not Active,–,–,–,–,–
COc1cccc2c1C(=O)c1c(O)c3c(c(O)c1C2=O)C[C@@](O)(C(=O)CO)C[C@@H]3O[C@H]1C[C@H](N)[C@H](O)[C@H](C)O1 [DOXORUBICIN],Not Active,Not Active,Not Active,Not Active,–,Not Active,2490,–,–,–,–
COc1cccc2c1C(=O)c1c(O)c3c(c(O)c1C2=O)C[C@@](O)(C(=O)CO)C[C@@H]3O[C@H]1C[C@H](N)[C@@H](O)[C@H](C)O1 [EPIRUBICIN],Not Active,Not Active,Not Active,Not Active,Not Active,Not Active,–,–,–,–,–
C[C@]12CC[C@@H]3c4ccc(OC(=O)c5ccccc5)cc4CC[C@H]3[C@@H]1CC[C@@H]2O [ESTRADIOL BENZOATE],Not Active,Not Active,Not Active,–,Not Active,Not Active,–,17200,17100,–,–
C[C@]12CC[C@@H]3c4ccc(O)cc4CC[C@H]3[C@@H]1CC[C@@H]2O [ESTRADIOL],Not Active,Not Active,Not Active,Not Active,Not Active,Not Active,–,–,–,–,–
CC[C@@H](CO)NCCN[C@@H](CC)CO [ETHAMBUTOL],Not Active,Not Active,Not Active,Not Active,Not Active,Not Active,–,–,–,–,–
CC1(C)O[C@@H]2C[C@H]3[C@@H]4C[C@H](F)C5=CC(=O)C=C[C@]5(C)[C@H]4[C@@H](O)C[C@]3(C)[C@]2(C(=O)CO)O1 [FLUNISOLIDE],Not Active,Not Active,Not Active,Not Active,Not Active,Not Active,–,–,–,–,–
CC1(C)O[C@@H]2C[C@H]3[C@@H]4C[C@H](F)C5=CC(=O)C=C[C@]5(C)[C@@]4(F)[C@@H](O)C[C@]3(C)[C@]2(C(=O)CO)O1 [FLUOCINOLONE ACETONIDE],Not Active,Not Active,Not Active,Not Active,Not Active,Not Active,–,–,–,–,–
CC1(C)O[C@@H]2C[C@H]3[C@@H]4C[C@H](F)C5=CC(=O)CC[C@]5(C)[C@H]4[C@@H](O)C[C@]3(C)[C@]2(C(=O)CO)O1 [FLURANDRENOLIDE],Not Active,Not Active,Not Active,Not Active,Not Active,Not Active,–,–,–,–,–
CN(C)c1ccc(C(=C2C=CC(=[N+](C)C)C=C2)c2ccc(N(C)C)cc2)cc1.[Cl-] [GENTIAN VIOLET],Not Active,Not Active,–,Not Active,Not Active,Not Active,–,–,–,1980,973
Cc1ccc(S(=O)(=O)NC(=O)NN2CC3CCCC3C2)cc1 (stereo unspecified) [GLICLAZIDE],Not Active,Not Active,Not Active,Not Active,Not Active,Not Active,–,–,–,–,–
NC(=O)NO [HYDROXYUREA],Not Active,Not Active,Not Active,Not Active,Not Active,Not Active,–,–,–,–,–
CC(C)Cc1ccc(C(C)C(=O)O)cc1 (stereo unspecified) [IBUPROFEN],Not Active,Not Active,Not Active,Not Active,Not Active,Not Active,–,–,–,–,–
